This data set can be described thus: In vitro half-life. It is filed as in vitro ADME. The source says:
The safety profile of TH9507 is generally good.

For `CC[C@H](C)[C@H](NC(=O)[C@H](C)NC(=O)[C@H](CC(=O)O)NC(=O)[C@H](C)NC(=O)[C@@H](N)Cc1ccc(O)cc1)C(=O)N[C@@H](Cc1ccccc1)C(=O)N[C@H](C(=O)N[C@@H](CC(N)=O)C(=O)N[C@@H](CO)C(=O)N[C@@H](Cc1ccc(O)cc1)C(=O)N[C@@H](CCCNC(=N)N)C(=O)N[C@@H](CCCCN)C(=O)N[C@H](C(=O)N[C@@H](CC(C)C)C(=O)NCC(=O)N[C@@H](CCC(N)=O)C(=O)N[C@@H](CC(C)C)C(=O)N[C@@H](CO)C(=O)N[C@@H](C)C(=O)N[C@@H](CCCNC(=N)N)C(=O)N[C@@H](CCCCN)C(=O)N[C@@H](CC(C)C)C(=O)N[C@@H](CC(C)C)C(=O)N[C@@H](CCC(N)=O)C(=O)N[C@@H](CC(=O)O)C(=O)N[C@H](C(=O)N[C@@H](CCSC)C(=O)N[C@@H](CO)C(=O)N[C@@H](CCCNC(=N)N)C(=O)N[C@@H](CCC(N)=O)C(=O)N[C@@H](CCC(N)=O)C(=O)NCC(=O)N[C@@H](CCC(=O)O)C(=O)N[C@@H](CO)C(=O)N[C@@H](CC(N)=O)C(=O)N[C@@H](CCC(N)=O)C(=O)N[C@@H](CCC(=O)O)C(=O)N[C@@H](CCCNC(=N)N)C(=O)NCC(=O)N[C@@H](C)C(=O)N[C@@H](CCCNC(=N)N)C(=O)N[C@@H](C)C(=O)N[C@@H](CCCNC(=N)N)C(=O)N[C@@H](CC(C)C)C(N)=O)[C@@H](C)CC)C(C)C)[C@@H](C)O` [hGRF, hGRF(1-44)NH2, reference compound], the half-life – broadly, the time in which the quantity being followed falls by half – is 33.6 min.

The values are drawn from patent US8481489B2, “GH secretagogues and uses thereof” (Theratechnologies Inc., priority 2003, dated 2013).
